Data from patent US20040117125A1, “Drug discovery method and apparatus” (priority 1999, published 2004).

Tests used:
MPTP-treated monkeys = settings: combined with L-Dopa or selective dopamine agonists (D1 or D2); cited from earlier work
GABA-A = test: Fluridone/bicuculline in vivo GABA-A agonism/antagonism assay; settings: mice, bicuculline 5 mg/kg alone

SMILES	dyskinesia (MPTP-treated monkeys)	seizures (GABA-A)	Death rate (GABA-A; within ten to twenty second after injection) [%]
CCn1c(=O)c2c(nc(/C=C/c3ccc(OC)c(OC)c3)n2C)n(CC)c1=O [KW-6002]	does not induce dyskinesia	–	–
CN1CCc2cc3c(cc2[C@H]1[C@@H]1OC(=O)c2c1ccc1c2OCO1)OCO3 [bicuculline]	–	induced immediate seizures	100
